The compounds below were run against WT AChE1 (Culex pipiens, UniProt Q86GC8) (assay: AChE assay (Ellman), dose-response on recombinant WT AChE1). Details: recombinant wild-type C. pipiens AChE1; 15 min incubation; acetylthiocholine; read-out: IC50 WT.
Type: biochemical
Parameters: made in house; host or cells: Drosophila S2 cells
Procedure: (§1) Production of C. pipiens WT and mutated AChE1s in Drosophila S2 cells was already described. The chemical library (ChemBridge, 3,000 compounds) screening was performed in duplicate on G119S recombinant AChE1. Chemicals were made soluble in ethanol or dimethylsulphoxide (DMSO), and then diluted at 300 µM in ethanol for storage. Compounds (30 µM final concentration) were incubated for 15 min at room temperature with 100 µl of G119S recombinant AChE1 then 100 µl of substrate (acetylthiocholine, 1.6 mM, Sigma-Aldrich) was added and the residual activity was quantified by measuring the optical density at 412 nm, as described by Ellman et al.. PTF analogs were analyzed in dose-response experiments (10-fold serial dilutions from 3 mM to 30 nM), using recombinant WT and G119S AChE1 or mosquito head extracts (heads cut from frozen mosquitoes, homogenized in 400 µl PB containing 1% Triton X-100 and cleared by centrifugation at 9,000×g for 3 min). Depending on compound availability, two to five replicates were performed with distinct batches of enzyme. […] IC50 was estimated by nonlinear least square regression. IC50 was also measured on AChE1 from susceptible and resistant mosquito larvae extracts.

SMILES	IC50 [µM]
O=C1NC(=O)N(c2ccccc2)C(=O)C1=Cc1ccc(Br)o1 [PTF-55]	17
CCOC(=O)c1ccc(-c2ccc(C=C3C(=O)NC(=O)N(c4ccccc4)C3=O)o2)cc1 [PTF-56]	4.9
O=C1NC(=O)N(c2ccccc2)C(=O)C1=Cc1ccc(-c2ccc(C(=O)O)cc2)o1 [PTF-57]	11.3
O=C1NC(=O)N(c2ccccc2)C(=O)C1=Cc1ccc(-c2cccc(C(=O)O)c2)o1 [PTF-58]	6.7
O=C1NC(=O)N(c2ccccc2)C(=O)C1=Cc1ccc(-c2ccccc2C(=O)O)o1 [PTF-59]	45.7
O=C1NC(=O)N(c2ccccc2)C(=O)C1=Cc1ccc(Sc2ccccc2)o1 [PTF-60]	7.7
O=C1NC(=O)N(c2ccccc2)C(=O)C1=Cc1ccc(N2CCCCC2)o1 [PTF-61]	124
O=C1NC(=O)N(c2ccccc2)C(=O)C1=Cc1ccc(N2CCOCC2)o1 [PTF-62]	197
O=C1NC(=S)N(c2ccccc2)C(=O)C1=Cc1ccco1 [PTF-63]	151
N=C1NC(=O)C(=Cc2ccco2)C(=O)N1c1ccccc1 [PTF-64]	56
CC(C)(C)N=C1NC(=O)C(=Cc2ccco2)C(=O)N1c1ccccc1 [PTF-65]	37
C=CCN1C(=O)NC(=O)C(=Cc2ccc(C)s2)C1=O [PTF-66]	91.6
O=C1NC(=O)N(c2ccccc2)C(=O)C1=Cc1cccs1 [PTF-67]	9.1
Cc1ccc(C=C2C(=O)NC(=O)N(c3ccccc3)C2=O)s1 [PTF-68]	4
O=C1NC(=O)N(c2ccccc2)C(=O)C1=Cc1ccc(-c2cccc(C(=O)O)c2)s1 [PTF-69]	43.9
O=C1NC(=O)N(c2ccccc2)C(=O)C1=Cc1ccc(N2CCCCC2)s1 [PTF-70]	18
O=C1NC(=O)N(c2ccccc2)C(=O)C1=Cc1ccc(N2CCOCC2)s1 [PTF-71]	4500

What follows are compounds tested on C. pipiens SR strain larvae (assay: Larval bioassay, SR strain (OP-resistant)). Details: fourth-instar larvae, 24 hours exposure, 300 µM.
Excerpt: (§2) Three C. pipiens strains were used: the susceptible reference Slab strain, homozygous for ace-1 ^S [39], the resistant reference SR strain, carrying the genetical background of Slab but homozygous for the G119S mutation, allele ace-1 ^R [21] and the Ducos strain, carrying the genetical background of Slab but homozygous for an ace-1 duplication, with one ace-1^S and ace-1^R copy in tandem. Culex pipiens heterozygous larvae (Slab×SR) were obtained by crossing Slab males and SR females.
(§3) Insecticidal activity was determined by performing bioassays on fourth-instar larvae as described in [42]. Each compound was dissolved in ethanol. Propoxur (CX) and chlorpyrifos (OP) were used as references. For each compound, we first tested mortality after a 24-hour exposure at 300 µM. […] Mortality data were analyzed by the log-probit program.

SMILES	Mortality at 300 µM, SR [%]
O=C1NC(=O)N(c2ccccc2)C(=O)C1=Cc1ccc(Br)o1 [PTF-55]	0
CCOC(=O)c1ccc(-c2ccc(C=C3C(=O)NC(=O)N(c4ccccc4)C3=O)o2)cc1 [PTF-56]	0
O=C1NC(=O)N(c2ccccc2)C(=O)C1=Cc1ccc(-c2ccc(C(=O)O)cc2)o1 [PTF-57]	0
O=C1NC(=O)N(c2ccccc2)C(=O)C1=Cc1ccc(-c2cccc(C(=O)O)c2)o1 [PTF-58]	0
O=C1NC(=O)N(c2ccccc2)C(=O)C1=Cc1ccc(-c2ccccc2C(=O)O)o1 [PTF-59]	0
O=C1NC(=O)N(c2ccccc2)C(=O)C1=Cc1ccc(Sc2ccccc2)o1 [PTF-60]	50
O=C1NC(=O)N(c2ccccc2)C(=O)C1=Cc1ccc(N2CCCCC2)o1 [PTF-61]	0
O=C1NC(=O)N(c2ccccc2)C(=O)C1=Cc1ccc(N2CCOCC2)o1 [PTF-62]	0
O=C1NC(=S)N(c2ccccc2)C(=O)C1=Cc1ccco1 [PTF-63]	0
N=C1NC(=O)C(=Cc2ccco2)C(=O)N1c1ccccc1 [PTF-64]	0
CC(C)(C)N=C1NC(=O)C(=Cc2ccco2)C(=O)N1c1ccccc1 [PTF-65]	0
C=CCN1C(=O)NC(=O)C(=Cc2ccc(C)s2)C1=O [PTF-66]	100
O=C1NC(=O)N(c2ccccc2)C(=O)C1=Cc1cccs1 [PTF-67]	0
Cc1ccc(C=C2C(=O)NC(=O)N(c3ccccc3)C2=O)s1 [PTF-68]	95
O=C1NC(=O)N(c2ccccc2)C(=O)C1=Cc1ccc(-c2cccc(C(=O)O)c2)s1 [PTF-69]	0
O=C1NC(=O)N(c2ccccc2)C(=O)C1=Cc1ccc(N2CCCCC2)s1 [PTF-70]	0
O=C1NC(=O)N(c2ccccc2)C(=O)C1=Cc1ccc(N2CCOCC2)s1 [PTF-71]	0

Each compound was assayed against T1, G119S AChE1 (Culex pipiens, UniProt Q86GC8, G247S) (assay: biochemical). Details: recombinant OP-insensitive G119S C. pipiens AChE1; 15 min incubation; acetylthiocholine; read-out: IC50 G119S.
T1 construct: made in house; host or cells: Drosophila S2 cells
Type: biochemical
Procedure: as §1, with “Compounds (30 µM final concentration) were incubated for 15 min at room temperature with 100 µl of G119S recombinant AChE1 then 100 µl of substrate (acetylthiocholine, 1.6 mM, Sigma-Aldrich) was added and the residual activity was quantified by measuring the optical density at 412 nm, as described by Ellman et al..” left out

SMILES	IC50 [µM]
O=C1NC(=O)N(c2ccccc2)C(=O)C1=Cc1ccc(Br)o1 [PTF-55]	32.6
CCOC(=O)c1ccc(-c2ccc(C=C3C(=O)NC(=O)N(c4ccccc4)C3=O)o2)cc1 [PTF-56]	1.9
O=C1NC(=O)N(c2ccccc2)C(=O)C1=Cc1ccc(-c2ccc(C(=O)O)cc2)o1 [PTF-57]	5.4
O=C1NC(=O)N(c2ccccc2)C(=O)C1=Cc1ccc(-c2cccc(C(=O)O)c2)o1 [PTF-58]	9.3
O=C1NC(=O)N(c2ccccc2)C(=O)C1=Cc1ccc(-c2ccccc2C(=O)O)o1 [PTF-59]	18.5
O=C1NC(=O)N(c2ccccc2)C(=O)C1=Cc1ccc(Sc2ccccc2)o1 [PTF-60]	1.1
O=C1NC(=O)N(c2ccccc2)C(=O)C1=Cc1ccc(N2CCCCC2)o1 [PTF-61]	1500
O=C1NC(=O)N(c2ccccc2)C(=O)C1=Cc1ccc(N2CCOCC2)o1 [PTF-62]	345
O=C1NC(=S)N(c2ccccc2)C(=O)C1=Cc1ccco1 [PTF-63]	98
N=C1NC(=O)C(=Cc2ccco2)C(=O)N1c1ccccc1 [PTF-64]	49.5
CC(C)(C)N=C1NC(=O)C(=Cc2ccco2)C(=O)N1c1ccccc1 [PTF-65]	22
C=CCN1C(=O)NC(=O)C(=Cc2ccc(C)s2)C1=O [PTF-66]	51
O=C1NC(=O)N(c2ccccc2)C(=O)C1=Cc1cccs1 [PTF-67]	11.2
Cc1ccc(C=C2C(=O)NC(=O)N(c3ccccc3)C2=O)s1 [PTF-68]	5
O=C1NC(=O)N(c2ccccc2)C(=O)C1=Cc1ccc(-c2cccc(C(=O)O)c2)s1 [PTF-69]	4.6
O=C1NC(=O)N(c2ccccc2)C(=O)C1=Cc1ccc(N2CCCCC2)s1 [PTF-70]	6.2
O=C1NC(=O)N(c2ccccc2)C(=O)C1=Cc1ccc(N2CCOCC2)s1 [PTF-71]	2480

What follows are compounds tested on C. pipiens Slab strain larvae (assay: Larval bioassay, Slab strain (OP-susceptible)). Details: fourth-instar larvae, 24 hours exposure, 300 µM.
Excerpt: as §2, with “females. Two A. gambiae reference strains (S molecular form) were used: the susceptible strain Kisumu, homozygous for ace-1 ^S, collected in Kenya in 1953 and maintained since then under laboratory conditions and the resistant Acerkis strain, carrying the genetical background of Kisumu but homozygous for an ace-1^R allele from a population collected in Bobo-Dioulasso, Burkina Faso [41].” for “females.”
as §3, with “program. This program takes into account natural mortality and provides lethal doses (LD) and slopes for each mortality line; it also computes resistance ratios (RR) for each LD, with 95% confidence intervals.” for “program.”

SMILES	Mortality at 300 µM, Slab [%]
O=C1NC(=O)N(c2ccccc2)C(=O)C1=Cc1ccc(Br)o1 [PTF-55]	0
CCOC(=O)c1ccc(-c2ccc(C=C3C(=O)NC(=O)N(c4ccccc4)C3=O)o2)cc1 [PTF-56]	0
O=C1NC(=O)N(c2ccccc2)C(=O)C1=Cc1ccc(-c2ccc(C(=O)O)cc2)o1 [PTF-57]	0
O=C1NC(=O)N(c2ccccc2)C(=O)C1=Cc1ccc(-c2cccc(C(=O)O)c2)o1 [PTF-58]	0
O=C1NC(=O)N(c2ccccc2)C(=O)C1=Cc1ccc(-c2ccccc2C(=O)O)o1 [PTF-59]	0
O=C1NC(=O)N(c2ccccc2)C(=O)C1=Cc1ccc(Sc2ccccc2)o1 [PTF-60]	50
O=C1NC(=O)N(c2ccccc2)C(=O)C1=Cc1ccc(N2CCCCC2)o1 [PTF-61]	0
O=C1NC(=O)N(c2ccccc2)C(=O)C1=Cc1ccc(N2CCOCC2)o1 [PTF-62]	0
O=C1NC(=S)N(c2ccccc2)C(=O)C1=Cc1ccco1 [PTF-63]	0
N=C1NC(=O)C(=Cc2ccco2)C(=O)N1c1ccccc1 [PTF-64]	0
CC(C)(C)N=C1NC(=O)C(=Cc2ccco2)C(=O)N1c1ccccc1 [PTF-65]	0
C=CCN1C(=O)NC(=O)C(=Cc2ccc(C)s2)C1=O [PTF-66]	63
O=C1NC(=O)N(c2ccccc2)C(=O)C1=Cc1cccs1 [PTF-67]	0
Cc1ccc(C=C2C(=O)NC(=O)N(c3ccccc3)C2=O)s1 [PTF-68]	89
O=C1NC(=O)N(c2ccccc2)C(=O)C1=Cc1ccc(-c2cccc(C(=O)O)c2)s1 [PTF-69]	0
O=C1NC(=O)N(c2ccccc2)C(=O)C1=Cc1ccc(N2CCCCC2)s1 [PTF-70]	0
O=C1NC(=O)N(c2ccccc2)C(=O)C1=Cc1ccc(N2CCOCC2)s1 [PTF-71]	0
